Data as given in US20260269287A1, “ALL-NONAQUEOUS MEMBRANE-FREE FLOW BATTERIES” (University of Cincinnati, priority 2023, published 2026).
Values after ≈ are worked out from the molar mass of the structure shown. “Also recorded” adds a separate entry of the source.

Key:
Assay type in all cases: physicochemical
[1] = Solubility test of C18-PTZ in FEC/LiTFSI; settings: in FEC/LiTFSI (1.2 M)
Protocol: Solubility test. […] The solution was gradually added to a vial containing known amounts of C18-PTZ. Once a clear solution was just obtained, the volume of the electrolyte was determined by an analytical pipette. The solubility of organic compounds was calculated from the ratio of the molar amount to electrolyte volume. These processes are repeated twice, and the averaged values are presented.
Solubility Test. […] The solution was incrementally added to a vial containing known quantities of C18-PTZ. The addition continued until a clear solution was achieved, at which point the volume of the electrolyte was measured using an analytical pipette. Subsequently, the solubility of the organic compounds was calculated by finding the ratio of the molar amount of C18-PTZ to the volume of the electrolyte. This entire process was repeated twice to ensure accuracy, and the averaged values of the solubility were reported as the final result.

[2] = Solubility of catholyte compounds in the three supporting electrolytes of the triphasic system
Excerpt: (§1) Selection of the anode and cathode materials. Achieving a high capacity for RFBs requires the selection of redox-active materials with high potential. In this study, Li metal was selected as the anode because of its low electrochemical potential (−3.04 V vs. a standard hydrogen electrode), high energy density, and theoretical capacity (~3,860 mAh/g). Graphite felt (GF) was selected as the cathode owing to its chemical inertness in nonaqueous electrolytes, high electrical conductivity, highly porous structure, and high specific surface area. […] The solubility properties of several redox-active catholyte compounds, including derivatives of phenothiazine, cyclopropenium, 2,2,6,6-tetramethylpiperidinyloxy (TEMPO), anthraquinone (AQ), and ferrocene, were evaluated as the three supporting electrolytes in the triphasic system (FIG. 88). […] The system was evaluated for the potential crossover of 0.5 M C18-PTZ dissolved in the FEC phase. […]
(§2) Selection of the anode and cathode materials. […] The solubility properties of several redox-active catholyte compounds, including derivatives of phenothiazine, cyclopropenium, 2,2,6,6-tetramethylpiperidinyloxy (TEMPO), anthraquinone (AQ), and ferrocene, were evaluated as the three supporting electrolytes in the triphasic system (FIG. 85). […] The system was evaluated for the potential crossover of 0.5 M C18-PTZ dissolved in the FEC phase. […]

[3] = Crossover study of C18-PTZ in the Design-I triphasic system under static conditions (UV-visible, CV); settings: 0.5 M in FEC phase, 10-day period
Excerpt: as §1, §2

[4] = Cyclic voltammetry of C18-PTZ in 0.1 M FEC/LiTFSI
Protocol: Electrochemical characterization. CV studies were carried out to estimate the electrochemical properties of redox material (C18-PTZ) as well as the crossover of redox-active cathode material before and after long-term battery cycling. For CV measurements, 5 mM of C18-PTZ solution were prepared in 0.1 M FEC/LiTFSI electrolyte. A 3-mm glassy carbon was used as the working electrode and was polished with 50 nm Al2O3 before measurements. Platinum wire (0.5 mm) was used as the counter electrodes. A Ag/Ag^+ electrode was used as the reference electrode.
Electrochemical characterization. For the cyclic voltammetry (CV) measurements, C18-PTZ (5 mM) solutions were prepared in FEC/LiTFSI (0.1 M) electrolyte. A glassy carbon disk (CHI Instrument, 3 mm) was used as the working electrode and was polished with aqueous Al2O3(Pine Research Instrumentation, Inc., […]) before the measurements. A piece of Pt wire (Pine Research Instrumentation, Inc., thickness 0.5 mm, purity 99.99%) was used as the counter electrode while an Ag/Ag^+ (MTI Corp) electrode was used as the reference electrode. The CV measurements were performed using a Bio-Logic potentiostat. The charge/discharge performances were evaluated using Land and Bio-Logic potentiostats.

[5] = RDE linear sweep voltammetry of C18-PTZ in 0.1 M FEC/LiTFSI; settings: 1 mM in 0.1 M FEC/LiTFSI
Protocol: To investigate the electrochemical kinetics of C18-PTZ redox molecules, linear sweep voltammetry (LSV) was conducted using the rotating disk electrode (RDE) technique. The LSV curves of C18-PTZ were measured in electrolyte solutions containing 1.0 mM C18-PTZ in 0.1 M FEC/LiTFSI solution, and the results are presented in FIG. 68(a).
Calculation of diffusion coefficient and electron transfer rate. Linear sweep voltammetry (LSV) studies were carried out using a Pine modulated speed rotator with Biologic potentiostats. Rotating disk electrode (RDE, diameter: 5 mm), Pt wire electrode and Ag/Ag^+ electrode were used as the working, counter and reference electrodes, respectively. Before testing, the samples were purged with argon for 10 min. LSV dates were collected at different rotation rates ranging from 100 to 1600 rpm. The diffusion coefficient (Do) of electroactive materials were calculated from the Levich plot using Equation 1.
The kinetic rate constant is calculated by Equation 2.
The LSV investigations were conducted using a Pine modulated speed rotator paired with Biologic potentiostats. […] The diffusion coefficient (D) of electroactive materials was calculated from the Lévich plot using Equation 1. The kinetic rate constant is calculated by Equation 2.

solubility [1]: 500 mM (≈ 226 mg/mL)
solubility in TEGDME and NFTTS ([2]; anolyte and intermediate layers of triphasic system): poor solubility
solubility in FEC ([2]; catholyte solvent of triphasic system): high solubility
crossover out of the FEC layer [3]: no significant crossover
redox couple potential ([4]; 5 mM in 0.1 M FEC/LiTFSI): 0.35 V vs. Ag/Ag^+
peak potential separation ([4]; scan rate 50 mV/s): 68 mV
peak potential separations ([4]; scan rate 50 mV/s, unit not given): ~ 68
ratio of cathodic peak current (ipc) and anodic peak current (ipa) ([4]; scan rates 50 to 250 mV/s): approximately 1
diffusion coefficient D ([5]; Levich plot): 6.23×10^−6 cm^2/s
Compound: CCCCCCCCCCCCCCCCCCN1c2ccccc2Sc2ccccc21 [C18-PTZ]
electrochemical stability on repeated CV cycling ([4]; FEC/LiTFSI (0.1 M), 50 mV/s, 500 cycles): excellent electrochemical stability; also recorded: high electrochemical stability
kinetic rate constant (k0) [5]: 0.00351 cm/s
